Assay results reported in patent US9586956B2, “Isoquinoline and naphthyridine derivatives” (Genentech, Inc., priority 2012, dated 2017).

Biological target: T1, purified human MAP4K4 kinase domain (Homo sapiens, UniProt O95819)
T1 construct: purified human MAP4K4 kinase domain
Experiment: MAP4K4 Inhibition Assay Protocol No. 2 (Z'-LYTE FRET)
Type: biochemical
Details: Assay 2; 1 nM enzyme, 10 uM ATP, 60 min
From the text: The kinase activity of purified human MAP4K4 kinase domain was monitored using Z'-LYTE™ technology from Invitrogen to determine inhibition constants (IC50) of small molecule inhibitors. The Z'-LYTE™ biochemical assay employs a fluorescence-based, coupled-enzyme format and is based on the differential sensitivity of phosphorylated and non-phosphorylated peptides to proteolytic cleavage. In the primary reaction, the kinase transfers the gamma-phosphate of ATP to a single tyrosine, serine or threonine residue in a synthetic FRET-peptide. In the secondary reaction, a site-specific protease recognizes and cleaves non-phosphorylated FRET-peptides. Phosphorylation of FRET-peptides suppresses cleavage by the Development Reagent. Cleavage disrupts FRET between the donor (i.e., coumarin) and acceptor (i.e., fluorescein) fluorophores on the FRET-peptide, whereas uncleaved, phosphorylated FRET-peptides maintain FRET. To determine inhibition constants (IC50), compounds were serially diluted in DMSO and added to 10 uL kinase reactions containing 1 nM purified MAP4K4 enzyme, 2 uM ser/thr7 Z'-LYTE™ substrate, 10 uMATP, 50 mM Hepes (pH 7.5), 10 mM MgCl2, 1 mM EGTA, 0.01% Brij-35, and 2% DMSO. Reactions were incubated at room temperature in Corning Black 384 well plates (Corning#3573) for 60 minutes and stopped by the addition of 5 uL of Z'-LYTE™ development reagent A and incubated at room temp for 60 minutes. The plate is then analyzed on Perkin Elmer Envision by FRET mode. The high ratio of coumarin/fluorescein represents 0% phosphorylation rate while low ratio of coumarin/fluorescein represents 100% phosphorylation rate. The following equations are used to determine extent of peptide phosphorylation or inhibition: […]

T1 sequence (O95819 25-289 limits assumed): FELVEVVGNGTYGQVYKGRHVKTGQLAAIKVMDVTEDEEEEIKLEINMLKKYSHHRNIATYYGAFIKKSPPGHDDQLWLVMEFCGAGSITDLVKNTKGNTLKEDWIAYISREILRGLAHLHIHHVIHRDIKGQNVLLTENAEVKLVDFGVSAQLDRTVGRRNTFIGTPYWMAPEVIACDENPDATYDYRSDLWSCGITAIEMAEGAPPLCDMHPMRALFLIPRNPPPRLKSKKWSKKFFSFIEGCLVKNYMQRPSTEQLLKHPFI

`CC(C)CNC(=O)c1cnc(N)c2nc(-c3cccc(F)c3)ccc12` [Example 40, 8-amino-2-(3-fluorophenyl)-N-isobutyl-1,7-naphthyridine-5-carboxamide] and `Nc1ncc(C(=O)NC2COC2)c2ccc(-c3cccc(F)c3)nc12` [Example 38, 8-amino-2-(3-fluorophenyl)-N-(oxetan-3-yl)-1,7-naphthyridine-5-carboxamide] are within 1.5-fold of each other in IC50: 0.00563 µM for the first, 0.00569 µM for the second.

Compared with `Nc1ncc(C(=O)NC2CN(S(N)(=O)=O)C2)c2ccc(-c3cccc(F)c3)nc12` [Example 21, 8-amino-2-(3-fluorophenyl)-N-(1-sulfamoylazetidin-3-yl)-1,7-naphthyridine-5-carboxamide], `CN(C)S(=O)(=O)N1CC(NC(=O)c2cnc(N)c3nc(-c4cccc(F)c4)ccc23)C1` [Example 19, 8-amino-N-(1-(N,N-dimethylsulfamoyl)azetidin-3-yl)-2-(3-fluorophenyl)-1,7-naphthyridine-5-carboxamide] is 2.1-fold higher in IC50: 0.0018 µM for the first, 0.00385 µM for the second. The first is the more potent here.

First: Nc1ncc(C(=O)NC2CN(C(=O)CN3CCOCC3)C2)c2ccc(-c3cccc(F)c3)nc12 [Example 20, 8-amino-2-(3-fluorophenyl)-N-(1-(2-morpholinoacetyl)azetidin-3-yl)-1,7-naphthyridine-5-carboxamide]
Second: Nc1ncc(C(=O)NC2CN(C(=O)N3CCOCC3)C2)c2ccc(-c3cccc(F)c3)nc12 [Example 27, 8-amino-2-(3-fluorophenyl)-N-(1-(morpholine-4-carbonyl)azetidin-3-yl)-1,7-naphthyridine-5-carboxamide]
The IC50 of the first is 2.2-fold lower: 0.0068 µM for the first, 0.0147 µM for the second. The first is the more potent here.

Compared with `CCOC(=O)c1cnc(N)c2nc(-c3cccc(OC)c3)ccc12` [Example 148, ethyl 8-amino-2-(3-methoxy-phenyl)-1,7-naphthyridine-5-carboxylate], `CCOC(=O)c1cnc(N)c2nc(-c3cccc(OC(C)C)c3)ccc12` [Example 146, ethyl 8-amino-2-(3-isopropoxy-phenyl)-1,7-naphthyridine-5-carboxylate] is 3.8-fold higher in IC50: 0.00853 µM for the first, 0.0326 µM for the second.

First: Nc1ncc(-c2cc(CO)ccn2)c2ccc(-c3cccc(F)c3)cc12 [Example 137, [2-[1-amino-7-(3-fluoro-phenyl)-4-isoquinolyl]-4-pyridyl]methanol]
Second: Cn1cnc(-c2cnc(N)c3cc(-c4cccc(F)c4)ccc23)c1 [Example 10, 7-(3-fluorophenyl)-4-(1-methylimidazol-4-yl)isoquinolin-1-amine]
The IC50 of the first is 2.7-fold lower: 0.0106 µM for the first, 0.0287 µM for the second.

First: CC(O)C(=O)N1CC(NC(=O)c2cnc(N)c3nc(-c4cccc(F)c4)ccc23)C1 (stereo not shown) [Example 16, 8-amino-2-(3-fluorophenyl)-N-(1-(2-hydroxypropanoyl)azetidin-3-yl)-1,7-naphthyridine-5-carboxamide]
Second: C[C@H](O)C(=O)N1CC(NC(=O)c2cnc(N)c3nc(-c4cccc(F)c4)ccc23)C1 [Example 25, (S)-8-amino-2-(3-fluorophenyl)-N-(1-(2-hydroxypropanoyl)azetidin-3-yl)-1,7-naphthyridine-5-carboxamide]
The IC50 of the first is 2-fold lower: 0.0045 µM for the first, 0.00918 µM for the second.

Going from `Nc1ncc(C(=O)NC2CCC2)c2ccc(-c3cccc(F)c3)nc12` [Example 33, 8-amino-N-cyclobutyl-2-(3-fluorophenyl)-1,7-naphthyridine-5-carboxamide] to `Nc1ncc(C(=O)NC2CN(C(=O)C3CC3)C2)c2ccc(-c3cccc(F)c3)nc12` [Example 37, 8-amino-N-(1-(cyclopropanecarbonyl)azetidin-3-yl)-2-(3-fluorophenyl)-1,7-naphthyridine-5-carboxamide], the IC50 rises from 0.00165 µM to 0.00294 µM (1.8-fold). The first is the more potent here.

First: Cn1ncnc1-c1cnc(N)c2cc(-c3cccc(F)c3)ccc12 [Example 12, 7-(3-fluorophenyl)-4-(2-methyl-1,2,4-triazol-3-yl)isoquinolin-1-amine]
Second: Cn1ccc(-c2cnc(N)c3cc(-c4cccc(F)c4)ccc23)n1 [Example 138, 7-(3-fluorophenyl)-4-(1-methylpyrazol-3-yl) isoquinolin-1-amine]
The IC50 of the first is 15-fold higher: 0.218 µM for the first, 0.0145 µM for the second.

Going from `CCOC(=O)c1cnc(N)c2nc(-c3cccc(S(=O)(=O)N(C)C)c3)ccc12` [Example 142, ethyl 8-amino-2-[3-(dimethyl-sulfamoyl)phenyl]-1,7-naphthyridine-5-carboxylate] to `CCOC(=O)c1cnc(N)c2nc(-c3cccc(S(C)(=O)=O)c3)ccc12` [Example 143, ethyl 8-amino-2-(3-methyl-sulfonylphenyl)-1,7-naphthyridine-5-carboxylate], the IC50 falls from 0.48 µM to 0.0636 µM (7.5-fold). The second is the more potent here.

`COCC(=O)N1CC(NC(=O)c2cnc(N)c3nc(-c4cccc(F)c4)ccc23)C1` [Example 39, 8-amino-2-(3-fluorophenyl)-N-(1-(2-methoxyacetyl)azetidin-3-yl)-1,7-naphthyridine-5-carboxamide] and `CCC(=O)N1CC(NC(=O)c2cnc(N)c3nc(-c4cccc(F)c4)ccc23)C1` [Example 35, 8-amino-2-(3-fluorophenyl)-N-(1-propionylazetidin-3-yl)-1,7-naphthyridine-5-carboxamide] are within 1.5-fold of each other in IC50: 0.0044 µM for the first, 0.00378 µM for the second.

Compared with `Nc1ncc(-c2nnco2)c2ccc(-c3cccc(F)c3)nc12` [Example 28, 2-(3-fluorophenyl)-5-(1,3,4-oxadiazol-2-yl)-1,7-naphthyridin-8-amine], `Nc1ncc(-c2ncn[nH]2)c2ccc(-c3cccc(F)c3)nc12` [Example 42, 2-(3-fluorophenyl)-5-(1H-1,2,4-triazol-5-yl)-1,7-naphthyridin-8-amine] is 4.2-fold higher in IC50: 0.002 µM for the first, 0.00832 µM for the second. The first is the more potent here.

First: Nc1ncc(-c2ncco2)c2ccc(-c3cccc(F)c3)cc12 [Example 11, 7-(3-fluorophenyl)-4-oxazol-2-yl-isoquinolin-1-amine]
Second: Nc1ncc(CNC(=O)c2ccccc2)c2ccc(-c3cccc(F)c3)cc12 [Example 136, N-[[1-amino-7-(3-fluoro-phenyl)-4-isoquinolyl]methyl]benzamide]
The IC50 of the first is 110-fold lower: 0.00873 µM for the first, 0.919 µM for the second. The first is the more potent here.

Going from `CCOC(=O)c1cnc(N)c2nc(-c3ccc(Cl)cc3)ccc12` [Example 149, ethyl 8-amino-2-(4-chlorophenyl)-1,7-naphthyridine-5-carboxylate] to `CCOC(=O)c1cnc(N)c2nc(-c3cccc(C#N)c3)ccc12` [Example 147, ethyl 8-amino-2-(3-cyanophenyl)-1,7-naphthyridine-5-carboxylate], the IC50 falls from 0.0278 µM to 0.00145 µM (19-fold). The second is the more potent here.

Compared with `Nc1ncc(C(=O)N2CC(N(C(=O)C3CC3)C(=O)C3CC3)C2)c2ccc(-c3cccc(F)c3)nc12` [Example 31, N-(1-(8-amino-2-(3-fluorophenyl)-1,7-naphthyridine-5-carbonyl)azetidin-3-yl)-N-(cyclopropanecarbonyl)cyclopropanecarboxamide], `Nc1ncc(C(=O)N2CC(NC(=O)C3CC3)C2)c2ccc(-c3cccc(F)c3)nc12` [Example 30, N-(1-(8-amino-2-(3-fluorophenyl)-1,7-naphthyridine-5-carbonyl)azetidin-3-yl)cyclopropanecarboxamide] is 20-fold lower in IC50: 0.284 µM for the first, 0.0139 µM for the second.

Compared with `CNC(=O)N1CC(NC(=O)c2cnc(N)c3nc(-c4cccc(F)c4)ccc23)C1` [Example 34, 8-amino-2-(3-fluorophenyl)-N-(1-(methylcarbamoyl)azetidin-3-yl)-1,7-naphthyridine-5-carboxamide], `CC(=O)NC1CN(C(=O)c2cnc(N)c3nc(-c4cccc(F)c4)ccc23)C1` [Example 32, N-(1-(8-amino-2-(3-fluorophenyl)-1,7-naphthyridine-5-carbonyl)azetidin-3-yl)acetamide] is 12-fold higher in IC50: 0.0016 µM for the first, 0.0198 µM for the second. The first is the more potent here.

Compared with `Nc1ncc(C(=O)NC2CN(C(=O)C3COC3)C2)c2ccc(-c3cccc(F)c3)nc12` [Example 17, 8-amino-2-(3-fluorophenyl)-N-(1-(oxetane-3-carbonyl)azetidin-3-yl)-1,7-naphthyridine-5-carboxamide], `Nc1ncc(C(=O)NC2CN(C(=O)N3CCS(=O)(=O)CC3)C2)c2ccc(-c3cccc(F)c3)nc12` [Example 15, 8-amino-N-(1-(1,1-dioxidothiomorpholine-4-carbonyl)azetidin-3-yl)-2-(3-fluorophenyl)-1,7-naphthyridine-5-carboxamide] is 4.3-fold lower in IC50: 0.0195 µM for the first, 0.00455 µM for the second.

Going from `CCOC(=O)c1cnc(N)c2nc(-c3cc(F)cc(F)c3)ccc12` [Example 145, ethyl 8-amino-2-(3,5-difluoro-phenyl)-1,7-naphthyridine-5-carboxylate] to `CCOC(=O)c1cnc(N)c2nc(-c3cccc(C(=O)N(C)C)c3)ccc12` [Example 144, ethyl 8-amino-2-[3-(dimethyl-carbamoyl)phenyl]-1,7-naphthyridine-5-carboxylate], the IC50 rises from 0.00184 µM to 0.0031 µM (1.7-fold).

`Nc1ncc(CNS(=O)(=O)C2CC2)c2ccc(-c3cccc(F)c3)cc12` [Example 134, N-[[1-amino-7-(3-fluoro-phenyl)-4-isoquinolyl]methyl] cyclopropanesulfonamide] and `CNC(=O)N1CCC(NC(=O)c2cnc(N)c3cc(-c4cccc(F)c4)ccc23)C1` (stereo not shown) [Example 135, 1-amino-7-(3-fluorophenyl)-N-[1-(methylcarbamoyl)pyrrolidin-3-yl] isoquinoline-4-carboxamide] are within 1.5-fold of each other in IC50: 0.155 µM for the first, 0.162 µM for the second.

`Nc1ncc(C(=O)NC2CN(CC(F)(F)F)C2)c2ccc(-c3cccc(F)c3)nc12` [Example 22, 8-amino-2-(3-fluorophenyl)-N-(1-(2,2,2-trifluoroethyl)azetidin-3-yl)-1,7-naphthyridine-5-carboxamide] showed an IC50 of 0.0244 µM.
